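Values below derive from 48-hour exposures of cells grown in 96-well plates, with endpoints linearly interpolated between the two concentrations bracketing the appropriate inhibition level. The concentration for full growth arrest is given as TGI.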
Experiments:
Test in all cases: NCI anticancer screen, dose series, 48 h
SF-268 CNS = system: SF-268 CNS
NCI-H522 lung = system: NCI-H522 lung
U251 CNS = system: U251 CNS
OVCAR-3 ovarian = system: OVCAR-3 ovarian
M14 melanoma = system: M14 melanoma
HCT-116 colon = system: HCT-116 colon
EKVX NSCLC = system: EKVX NSCLC
SW-620 colon = system: SW-620 colon
MDA-MB-435 = system: MDA-MB-435
HCT-15 colon = system: HCT-15 colon
SF-539 CNS = system: SF-539 CNS
CAKI-1 renal = system: CAKI-1 renal
KM12 colon = system: KM12 colon
NCI/ADR-RES ovarian = system: NCI/ADR-RES ovarian
RPMI-8226 leukemia = system: RPMI-8226 leukemia
SNB-75 CNS = system: SNB-75 CNS
786-0 renal = system: 786-0 renal
HOP-62 NSCLC = system: HOP-62 NSCLC
A498 renal = system: A498 renal
MALME-3M melanoma = system: MALME-3M melanoma
SK-MEL-2 melanoma = system: SK-MEL-2 melanoma
CCRF-CEM leukemia = system: CCRF-CEM leukemia
SR leukemia = system: SR leukemia
HT29 colon = system: HT29 colon
HS 578T breast = system: HS 578T breast
LOX IMVI melanoma = system: LOX IMVI melanoma
MDA-MB-231 breast = system: MDA-MB-231 breast
IGROV1 ovarian = system: IGROV1 ovarian
SK-MEL-28 melanoma = system: SK-MEL-28 melanoma
SNB-19 CNS = system: SNB-19 CNS
MCF7 breast = system: MCF7 breast
PC-3 prostate = system: PC-3 prostate
SK-MEL-5 melanoma = system: SK-MEL-5 melanoma
A549 NSCLC = system: A549 NSCLC
OVCAR-8 ovarian = system: OVCAR-8 ovarian
NCI-H23 lung = system: NCI-H23 lung
TK-10 renal = system: TK-10 renal
HL-60(TB) leukemia = system: HL-60(TB) leukemia
K-562 leukemia = system: K-562 leukemia
SN12C renal = system: SN12C renal
ACHN renal = system: ACHN renal
OVCAR-5 ovarian = system: OVCAR-5 ovarian
OVCAR-4 ovarian = system: OVCAR-4 ovarian
RXF 393 renal = system: RXF 393 renal
BT-549 breast = system: BT-549 breast
HOP-92 NSCLC = system: HOP-92 NSCLC
SF-295 CNS = system: SF-295 CNS
NCI-H460 lung = system: NCI-H460 lung
HCC-2998 colon = system: HCC-2998 colon
MDA-N = system: MDA-N
NCI-H226 lung = system: NCI-H226 lung
UO-31 renal = system: UO-31 renal
UACC-257 melanoma = system: UACC-257 melanoma
MOLT-4 leukemia = system: MOLT-4 leukemia
COLO 205 colon = system: COLO 205 colon
DU-145 prostate = system: DU-145 prostate
UACC-62 melanoma = system: UACC-62 melanoma
SK-OV-3 ovarian = system: SK-OV-3 ovarian

CN1CC[C@]2(c3cccc(O)c3)CC(=O)/C(=C/c3ccccc3)[C@@H]1C2 showed a TGI (SF-268 CNS) of 10.4 µM, a TGI (NCI-H522 lung) of 11.2 µM and a TGI (U251 CNS) of 8.36 µM. For the same compound, the TGI (OVCAR-3 ovarian) was 4.43 µM, the TGI (M14 melanoma) was 12.1 µM and the TGI (HCT-116 colon) was 5.94 µM. For the same compound, the TGI (EKVX NSCLC) was 20.2 µM, the TGI (SW-620 colon) was 6.93 µM and the TGI (MDA-MB-435) was 5.38 µM. The TGI (HCT-15 colon) was 4.93 µM, the TGI (SF-539 CNS) was 6.1 µM and the TGI (CAKI-1 renal) was 6.04 µM. It also gave a TGI (KM12 colon) of 11.4 µM, a TGI (NCI/ADR-RES ovarian) of 16.1 µM and a TGI (RPMI-8226 leukemia) of 4.84 µM. The TGI (SNB-75 CNS) was 5.27 µM, the TGI (786-0 renal) was 7.12 µM and the TGI (HOP-62 NSCLC) was 12.7 µM. It also gave a TGI (A498 renal) of 17 µM, a TGI (MALME-3M melanoma) of 10.4 µM and a TGI (SK-MEL-2 melanoma) of 13 µM. The TGI (CCRF-CEM leukemia) was over 24.5 µM, the TGI (SR leukemia) was 8.68 µM and the TGI (HT29 colon) was 7.55 µM. The TGI (HS 578T breast) was 13 µM, the TGI (LOX IMVI melanoma) was 4.71 µM and the TGI (MDA-MB-231 breast) was 7.29 µM. The TGI (IGROV1 ovarian) was 14.6 µM, the TGI (SK-MEL-28 melanoma) was 13.4 µM and the TGI (SNB-19 CNS) was 18.2 µM. The TGI (MCF7 breast) was 6.06 µM, the TGI (PC-3 prostate) was 7.74 µM and the TGI (SK-MEL-5 melanoma) was 14.7 µM. It also gave a TGI (A549 NSCLC) of 13.2 µM, a TGI (OVCAR-8 ovarian) of 10.5 µM and a TGI (NCI-H23 lung) of 36.8 µM. For the same compound, the TGI (TK-10 renal) was 27.1 µM, the TGI (HL-60(TB) leukemia) was 5.33 µM and the TGI (K-562 leukemia) was 4.01 µM. The TGI (SN12C renal) was 13.6 µM, the TGI (ACHN renal) was 6.74 µM and the TGI (OVCAR-5 ovarian) was 29.7 µM. The TGI (OVCAR-4 ovarian) was 16.9 µM, the TGI (RXF 393 renal) was 4.18 µM and the TGI (BT-549 breast) was 7.27 µM. For the same compound, the TGI (HOP-92 NSCLC) was 9.93 µM, the TGI (SF-295 CNS) was 13.2 µM and the TGI (NCI-H460 lung) was 7.23 µM. The TGI (HCC-2998 colon) was 7.16 µM, the TGI (MDA-N) was 3.94 µM and the TGI (NCI-H226 lung) was 31.9 µM. It also gave a TGI (UO-31 renal) of 10.4 µM, a TGI (UACC-257 melanoma) of 11.7 µM and a TGI (MOLT-4 leukemia) of 5.59 µM. For the same compound, the TGI (COLO 205 colon) was 18.1 µM and the TGI (DU-145 prostate) was 17.5 µM.

Compound O=C1/C(=C/c2ccc(Cl)cc2)CCCc2ccccc21 has a TGI (SF-268 CNS) of 30.9 µM, a TGI (NCI-H522 lung) of 26.5 µM and a TGI (U251 CNS) of 27.4 µM. For the same compound, the TGI (OVCAR-3 ovarian) was 39.4 µM, the TGI (M14 melanoma) was 28.9 µM and the TGI (HCT-116 colon) was 26.5 µM. The TGI (EKVX NSCLC) was 35.3 µM, the TGI (SW-620 colon) was 29 µM and the TGI (MDA-MB-435) was 36.1 µM. It also gave a TGI (HCT-15 colon) of 27.7 µM, a TGI (SF-539 CNS) of 31.8 µM and a TGI (CAKI-1 renal) of over 100 µM. It also gave a TGI (KM12 colon) of 28.5 µM, a TGI (NCI/ADR-RES ovarian) of 32.6 µM and a TGI (RPMI-8226 leukemia) of 69 µM. The TGI (SNB-75 CNS) was over 100 µM, the TGI (786-0 renal) was 32.4 µM and the TGI (HOP-62 NSCLC) was 57.7 µM. It also gave a TGI (MALME-3M melanoma) of 27.5 µM, a TGI (SK-MEL-2 melanoma) of 27.8 µM and a TGI (CCRF-CEM leukemia) of 32.5 µM. The TGI (SR leukemia) was 37 µM, the TGI (HT29 colon) was 19.7 µM and the TGI (HS 578T breast) was 28.1 µM. For the same compound, the TGI (LOX IMVI melanoma) was 31 µM, the TGI (MDA-MB-231 breast) was 39.7 µM and the TGI (IGROV1 ovarian) was 43.3 µM. It also gave a TGI (SK-MEL-28 melanoma) of 30.7 µM, a TGI (SNB-19 CNS) of 43.6 µM and a TGI (MCF7 breast) of 65.8 µM. The TGI (PC-3 prostate) was 53.1 µM, the TGI (A549 NSCLC) was 60 µM and the TGI (OVCAR-8 ovarian) was 32.7 µM. For the same compound, the TGI (NCI-H23 lung) was 60.5 µM, the TGI (TK-10 renal) was 58.7 µM and the TGI (HL-60(TB) leukemia) was 33.5 µM. The TGI (K-562 leukemia) was 12 µM, the TGI (SN12C renal) was 33.3 µM and the TGI (ACHN renal) was 31.1 µM. The TGI (OVCAR-5 ovarian) was 31.9 µM, the TGI (OVCAR-4 ovarian) was 29.5 µM and the TGI (UACC-62 melanoma) was 27.5 µM. It also gave a TGI (BT-549 breast) of 47.3 µM, a TGI (HOP-92 NSCLC) of 57.3 µM and a TGI (SF-295 CNS) of 31.5 µM. It also gave a TGI (NCI-H460 lung) of 32.2 µM, a TGI (HCC-2998 colon) of 36.7 µM and a TGI (MDA-N) of 33.3 µM. The TGI (NCI-H226 lung) was 35.9 µM, the TGI (UO-31 renal) was 35.4 µM and the TGI (UACC-257 melanoma) was 77.7 µM. For the same compound, the TGI (SK-OV-3 ovarian) was 96.5 µM, the TGI (MOLT-4 leukemia) was 40 µM and the TGI (COLO 205 colon) was 34.9 µM. It also gave a TGI (DU-145 prostate) of 59 µM.
